{"source": "patent US4230845A", "about": "“Polyhydroxy-alkyl-3,5-disubstituted-2,4,6-triiodocarbanilates” (Mallinckrodt, Inc., priority 1978, dated 1980)", "key": {"[1]": {"experiment": "Intracisternal toxicity in rats", "assay_type": "in vivo, Sprangue-Dawley (Carworth) rats", "settings": "aqueous solution, two day observation, Litchfield and Wilcoxon", "procedure": "(§1) Toxicity evaluations in accordance with three different techniques were carried out on aqueous solutions of the compounds of Examples I and II. The techniques utilized are described below.\nSprangue-Dawley (Carworth) rats were used. The method used was a variation of the procedure outlined by Melartin et al. (Invest. Rad. 5: 13-21, 1970). After dosing, the animals were housed individually and observed for immediate reactions and periodically for a two day observation period. The LD50 values were calculated according to the method of Litchfield and Wilcoxon (J. of Pharmac. and Exptl. Therap. 96:99-115, 1949)."}, "[2]": {"experiment": "Acute intravenous toxicity studies in mice", "assay_type": "in vivo, Swiss Albino mice (Charles River)", "settings": "intravenous (lateral tail vein), iodine concentration 28.2%, pH 7.0-7.2, approx. 1 ml./min, seven day observation, Litchfield and Wilcoxon", "procedure": "as §1\nSwiss Albino mice (Charles River) were dosed in the lateral tail vein with aqueous solutions of the above-noted iodinated compounds having an iodine concentration of 28.2% with a pH of 7.0-7.2. The solutions were injected at the rate of approximately 1 ml./min. […] The LD50 values were calculated by the method of Litchfield and Wilcoxon (J. of Pharmac. and Exptl. Therap. 96: 99-113, 1949)."}, "Water solubility": {"experiment": "Water solubility", "assay_type": "physicochemical"}, "[3]": {"experiment": "Intracerebral toxicity in mice", "assay_type": "in vivo, Swiss Albino mice (Charles River)", "settings": "aqueous solution, seven day observation, Litchfield and Wilcoxon", "procedure": "as §1\nSwiss Albino mice (Charles River) were used. Fixed volumes of aqueous solutions of the iodinated compounds were injected intracerebrally via a 27 gauge needle (1/4 inch in length) according to the method of Haley et al. (Br. J. of Pharmac. 12:12-15, 1957). The animals were observed immediately following injections and daily throughout a seven day observation period. The LD50 values were calculated by the method of Litchfield and Wilcoxon (J. of Pharmac. and Exptl. Therap. 96:99-113, 1949)."}, "[4]": {"experiment": "Intravenous pyelographic studies in dogs", "assay_type": "in vivo", "settings": "dog", "procedure": "The compounds of Examples I and II were employed in intravenous pyelographic studies carried out in dogs. At a dosage of 1000 mg."}}, "note": "Where two headings read alike, the source gives them in different places."}
{"compound": "CNC(=O)c1c(I)c(NC(=O)OC[C@@H](O)[C@H](O)[C@H](O)[C@@H](O)C=O)c(I)c(N(C)C(C)=O)c1I", "note": "[Example II, 6-[2,4,6-Triiodo-3-(N-methylacetamido)-5-(N-methylcarbamyl)carbanilyl]-D-galactose]", "values": [{"measurement": "LD50 Value, Intracisternal (Rats)", "setting": "[1]", "result": "< 20", "unit": "mg. I/kg. body wt."}, {"measurement": "LD50 Value, I.V. (Mice)", "setting": "[2]", "result": "2,300 mg. I/kg. body wt."}, {"measurement": "solubility", "setting": "Water solubility; read-out: Water solubility", "result": "≥ 1000", "unit": "mg/mL"}, {"measurement": "LD50 Value, Intracerebral (Mice)", "setting": "[3]", "result": 222, "unit": "mg. I/kg. body wt."}, {"measurement": "Pyelographic visualization", "setting": "[4]; 155 mg. I/kg., five minutes after injection", "result": "a better shadow of the kidneys was seen together with partial visualization of the ureters"}, {"measurement": "Pyelographic visualization", "setting": "[4]; 155 mg. I/kg., one minute after injection", "result": "visualization of the kidneys"}]}
{"compound": "CNC(=O)c1c(I)c(NC(=O)OCC(=O)[C@@H](O)[C@H](O)[C@@H](O)CO)c(I)c(C(=O)N(C)C)c1I", "note": "[Example I, 1-[N-(2,4,6-triiodo-3-N,N-dimethylcarbamyl-5-N-methylcarbamyl)carbanilyl]-L-sorbose]", "values": [{"measurement": "LD50 Value, Intracisternal (Rats)", "setting": "[1]", "result": 13, "unit": "mg. I/kg. body wt."}, {"measurement": "LD50 Value, I.V. (Mice)", "setting": "[2]", "result": "3,027 mg. I/kg. body wt."}, {"measurement": "solubility at 730 h", "setting": "Water solubility; after standing for one month", "result": 200, "unit": "mg/mL"}, {"measurement": "solubility", "setting": "Water solubility; initial determination, read-out: Water solubility (initially)", "result": 1000, "unit": "mg/mL"}, {"measurement": "LD50 Value, Intracerebral (Mice)", "setting": "[3]", "result": "1,450 mg. I/kg. body wt."}, {"measurement": "Pyelographic visualization", "setting": "[4]; 1000 mg. I/kg., five minutes after injection", "result": "very good contrast of the kidneys, collecting pelvises and urinary bladder"}]}
